Assay results reported in US10870678B2, “Chiral peptides” (ARCUATE THERAPEUTICS, INC., priority 2016, dated 2020).
Read-outs that look alike come from different tables or passages of the source.

Key:
[1] = system: HepG2 human liver cancer cell line; assay: Functional Mitochondrial Toxicity Assay, XFe96 Seahorse (HepG2); assay type: cell-based; conditions: HepG2
Method: (§1) The present Examples interrogate the two major energy producing pathways in the cell, mitochondrial respiration and glycolysis. HepG2 human liver cancer cell lines were dosed with test compounds and in real time the extracellular oxygen levels and pH were measured using the XFe96 flux analyser (Seahorse Biosciences). XFe Technology uses solid-state sensors to simultaneously measure both oxygen consumption rate (OCR) and extracellular acidification rate (ECAR) to determine effects on oxidative phosphorylation (OXPHOS) and glycolysis simultaneously. The cells were then subjected to sequential exposure to various inhibitors of mitochondrial functional to assess cellular metabolism.
(§2) A positive mitochondrial active compound is determined when there is a change in OCR or ECAR in the absence of cytotoxicity. Cytotoxicity was determined when both oxidative phosphorylation (OCR) and glycolysis (ECAR) were inhibited.
(§3) OCR is a measurement of oxygen content in extracellular media. Changes in OCR indicate effects on mitochondrial function, and can be bi-directional. A decrease is due to an inhibition of mitochondrial respiration, whilst an increase may indicate an uncoupler, in which respiration is not linked to energy production.
(§4) ECAR is the measurement of extracellular proton concentration (pH). An increase in signal means an increase in rate in number of pH ions (Thus decreasing pH value), and seen as an increase in glycolysis. Expressed as a fraction of basal control (rate prior to addition of compound).
(§5) Reverse capacity is the measured ability of cells to respond to an increase in energy demand, a reduction indicates mitochondrial dysfunction.
(§6) The Mitochondrial Stress Test is a series of sequential additions of compounds to the cells to assess a bioenergetics profile, and effects of test compounds on parameters such as proton leak and research capacity. This was used to assist in understanding potential mechanisms of mitochondrial toxicity. For example, it involves the addition of the follow compounds in this order:
Oligomycin is a known inhibitor of ATP synthase, and prevents the formation of ATP. This provides a measurement of the amount of oxygen consumption related to ATP production and ATP turnover. The addition of Oligomycin results in a decrease in OCR under normal conditions, and residual OCR is related to the natural proton leak.
Carbonyl cyanide 4-(trifluoromethoxy)phenylhydrazine (FCCP) is a protonphore, and is a known uncoupler of oxygen consumption from ATP production. This allows the maximum achievable transfer of electrons and oxygen consumption rate, and provides a measurement of reserve capacity.
Rotenone and antimycin A are known inhibitors of complex I and III of the electron transport chain, respectively. This inhibits electron transport completely, and any residual oxygen consumption is due to non-mitochondrial activity via oxygen requiring enzymes.

[2] = system: GM01299 propionic acidemia human cell line; assay: Functional Mitochondrial Toxicity Assay (GM01299); assay type: cell-based
Method: as §1, §2, §3, §4, §5, §6
The present Example interrogates the two major energy producing pathways in the cell, mitochondrial respiration and glycolysis. A GM01299 propionic acidemia human cell line was dosed with test compound I-17 using the general protocol outlined in Example 2 above.

[3] = system: GM05162 Duchenne muscular dystrophy human cell line; assay: Functional Mitochondrial Toxicity Assay (GM05162); assay type: cell-based
Method: as §1, §2, §3, §4, §5, §6
The present Example interrogates the two major energy producing pathways in the cell, mitochondrial respiration and glycolysis. A GM05162 Duchenne muscular dystrophy human cell line was dosed with test compound I-17 using the general protocol outlined in Example 2 above.

[4] = system: GM16548 Rett syndrome human cell line; assay: Functional Mitochondrial Toxicity Assay (GM16548); assay type: cell-based
Method: as §1, §2, §3, §4, §5, §6
The present Example interrogates the two major energy producing pathways in the cell, mitochondrial respiration and glycolysis. A GM16548 Rett syndrome human cell line was dosed with test compound I-39 using the general protocol outlined in Example 2 above.

[5] = system: GM01061 Huntington Disease human cell line; assay: Functional Mitochondrial Toxicity Assay (GM01061); assay type: cell-based
Method: as §1, §2, §3, §4, §5, §6
The present Example interrogates the two major energy producing pathways in the cell, mitochondrial respiration and glycolysis. A GM01061 Huntington Disease human cell line was dosed with test compound I-39 using the general protocol outlined in Example 2 above.

mitochondria [6] = conditions: US 2004/0248808, U.S. Pat. No. 7,718,620; cited from earlier work
[7] = system: immortalized human trabecular meshwork (iHTM) cells; conditions: Chen et al. 2011; cited from earlier work
[8] = system: glaucomatous human trabecular meshwork (GTM3) cells; conditions: Chen et al. 2011; cited from earlier work
[9] = Szeto et al. 2013; cited from earlier work
mitochondria [10] = conditions: cited from earlier work
[11] = read-out: Reserve Capacity AC50

| Compound | Potential Mechanism [1] | Reserve Capacity MEC [1] [µM] | Reserve Capacity ↑↓ [1] | AC50 ([1]; read-out: ECAR AC50) [µM] | AC50 ([1]; read-out: OCR AC50) [µM] | AC50 [1, 11] [µM] | Potential Mechanism [2] | Reserve Capacity MEC [2] [µM] | Reserve Capacity ↑↓ [2] | AC50 ([2]; read-out: ECAR AC50) [µM] | AC50 ([2]; read-out: OCR AC50) [µM] | AC50 [2, 11] [µM] | Potential Mechanism [4] | Reserve Capacity MEC [4] [µM] | Reserve Capacity ↑↓ [4] | AC50 ([4]; read-out: ECAR AC50) [µM] | AC50 [4, 11] [µM] | Potential Mechanism [5] | AC50 ([5]; read-out: ECAR AC50) [µM] | AC50 [5, 11] [µM] | also measured |
| --- | --- | --- | --- | --- | --- | --- | --- | --- | --- | --- | --- | --- | --- | --- | --- | --- | --- | --- | --- | --- | --- |
| O=C(O)CCC(=O)O [Succinate] | Uncoupler | 62.5 | ↑ | > 100 | > 100 | > 100 | Other | 38.2 | ↑ | > 100 | > 100 | > 100 | Other | 72.3 | ↑ | > 100 | > 100 | No effect | > 100 | > 100 | OCR MEC [1]: 74.8 µM; OCR ↑↓ [1]: ↑; ECAR MEC [3]: 0.179 µM; ECAR ↑↓ [3]: ↑; Potential Mechanism [3]: Other; AC50 ([3]; read-out: ECAR AC50): 2.91 µM; AC50 [3, 11]: > 100 µM; AC50 ([4]; read-out: OCR AC50): > 100 µM |
| CC(O)CC(=O)O (stereo not drawn) [β-OHB] | Other | 53.0 | ↑ | > 100 | > 100 | > 100 | Other | 25.3 | ↑ | > 100 | > 100 | > 100 | Other | 23.1 | ↑ | > 100 | 72.2 | Other | > 100 | > 100 | ECAR MEC [2]: 89.8 µM; ECAR ↑↓ [2]: ↓; Potential Mechanism [3]: Other; Reserve Capacity MEC [3]: 1.15 µM; Reserve Capacity ↑↓ [3]: ↑; AC50 ([3]; read-out: ECAR AC50): > 100 µM; AC50 [3, 11]: 69.5 µM; Reserve Capacity MEC [5]: 81.1 µM; Reserve Capacity ↑↓ [5]: ↑; AC50 ([5]; read-out: OCR AC50): > 100 µM |
| (D-Arg)(L-Dmt)(L-Lys)(L-Phe)-NH2 [Peptide I-1, reference compound] |  |  | ↑ |  | > 100 |  |  |  |  |  |  |  |  |  |  |  |  |  |  |  | ECAR ↑↓ [1]: ↓; Potential Mechanism ([1]; listed as I-1 (1)): No effect; AC50 ([1]; listed as I-1 (1), read-out: ECAR AC50): > 100 µM; AC50 ([1]; listed as I-1 (1), read-out: Reserve Capacity AC50): > 100 µM; ECAR MEC ([1]; listed as I-1 (2)): 14.3 µM; Potential Mechanism ([1]; listed as I-1 (2)): Other; Reserve Capacity MEC ([1]; listed as I-1 (2)): 90.3 µM; AC50 ([1]; listed as I-1 (2), read-out: ECAR AC50): > 100 µM; AC50 ([1]; listed as I-1 (2), read-out: Reserve Capacity AC50): > 100 µM; number of mitochondria undergoing MPT (mitochondria [6]): significantly reduce; sustained oxidative stress induced by H2O2 [7]: prevent; sustained oxidative stress induced by H2O2 [8]: prevent; binding to cardiolipin within the inner mitochondria membrane [9]: binding to cardiolipin; reactive oxygen species (ROS) in the mitochondria (mitochondria [10]): reduces |
| (D-Phe)(D-Orn)(D-Tyr)(D-Orn)-NH2 [Peptide I-39] | Other |  | ↑ | > 100 | > 100 | > 100 |  |  |  |  |  |  | Other | 60.2 | ↑ | > 100 | > 100 | No effect | > 100 | > 100 | ECAR ↑↓ [1]: ↓; ECAR MEC ([1]; listed as I-39(1)): 30.1 µM; Reserve Capacity MEC ([1]; listed as I-39(1)): 92.4 µM; ECAR MEC ([1]; listed as I-39(2)): 15.3 µM; Reserve Capacity MEC ([1]; listed as I-39(2)): 67.6 µM; ECAR MEC ([1]; listed as I-39(3)): 21.2 µM; Reserve Capacity MEC ([1]; listed as I-39(3)): 77.3 µM; AC50 ([4]; read-out: OCR AC50): > 100 µM |
| (L-Phe)(L-Orn)(L-Tyr)(D-Arg)-NH2 [Peptide I-14] | No effect |  |  | > 100 | > 100 | > 100 |  |  |  |  |  |  |  |  |  |  |  |  |  |  |  |
| (L-Phe)(L-Orn)(L-Tyr)(D-Orn)-NH2 [Peptide I-15] | Other | 64.7 | ↑ | > 100 | > 100 | > 100 |  |  |  |  |  |  |  |  |  |  |  |  |  |  |  |
